Experimental data: PubChem BioAssay (NCI)
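Briefly, cells in 96-well plates were exposed to five compound concentrations for 48 h, and endpoints were estimated by linear interpolation. The concentration for 50% growth inhibition is given as GI50. At the TGI there is no net growth.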

What was measured:
Assay in all cases: NCI tumour cell line growth inhibition, 48 h; in the data active = GI50 below about 0.43 µM; inactive = the rest
786-0 renal = test system: 786-0 renal
A498 renal = test system: A498 renal
A549 NSCLC = test system: A549 NSCLC
ACHN renal = test system: ACHN renal
BT-549 breast = test system: BT-549 breast
CAKI-1 renal = test system: CAKI-1 renal
CCRF-CEM leukemia = test system: CCRF-CEM leukemia
COLO 205 colon = test system: COLO 205 colon
DU-145 prostate = test system: DU-145 prostate
EKVX NSCLC = test system: EKVX NSCLC
HCC-2998 colon = test system: HCC-2998 colon
HCT-116 colon = test system: HCT-116 colon
HCT-15 colon = test system: HCT-15 colon
HL-60(TB) leukemia = test system: HL-60(TB) leukemia
HOP-62 NSCLC = test system: HOP-62 NSCLC
HOP-92 NSCLC = test system: HOP-92 NSCLC
HS 578T breast = test system: HS 578T breast
HT29 colon = test system: HT29 colon
IGROV1 ovarian = test system: IGROV1 ovarian
K-562 leukemia = test system: K-562 leukemia
KM12 colon = test system: KM12 colon
LOX IMVI melanoma = test system: LOX IMVI melanoma
M14 melanoma = test system: M14 melanoma
MALME-3M melanoma = test system: MALME-3M melanoma
MCF7 breast = test system: MCF7 breast
MDA-MB-231 breast = test system: MDA-MB-231 breast
MDA-MB-435 = test system: MDA-MB-435
MDA-MB-468 breast = test system: MDA-MB-468 breast
MOLT-4 leukemia = test system: MOLT-4 leukemia
NCI-H226 lung = test system: NCI-H226 lung
NCI-H23 lung = test system: NCI-H23 lung
NCI-H460 lung = test system: NCI-H460 lung
NCI-H522 lung = test system: NCI-H522 lung
OVCAR-3 ovarian = test system: OVCAR-3 ovarian
OVCAR-4 ovarian = test system: OVCAR-4 ovarian
OVCAR-5 ovarian = test system: OVCAR-5 ovarian
OVCAR-8 ovarian = test system: OVCAR-8 ovarian
PC-3 prostate = test system: PC-3 prostate
RPMI-8226 leukemia = test system: RPMI-8226 leukemia
RXF 393 renal = test system: RXF 393 renal
SF-268 CNS = test system: SF-268 CNS
SF-295 CNS = test system: SF-295 CNS
SF-539 CNS = test system: SF-539 CNS
SK-MEL-2 melanoma = test system: SK-MEL-2 melanoma
SK-MEL-28 melanoma = test system: SK-MEL-28 melanoma
SK-MEL-5 melanoma = test system: SK-MEL-5 melanoma
SK-OV-3 ovarian = test system: SK-OV-3 ovarian
SN12C renal = test system: SN12C renal
SNB-19 CNS = test system: SNB-19 CNS
SNB-75 CNS = test system: SNB-75 CNS
SR leukemia = test system: SR leukemia
SW-620 colon = test system: SW-620 colon
T-47D breast = test system: T-47D breast
TK-10 renal = test system: TK-10 renal
U251 CNS = test system: U251 CNS
UACC-257 melanoma = test system: UACC-257 melanoma
UACC-62 melanoma = test system: UACC-62 melanoma
UO-31 renal = test system: UO-31 renal

O=C(c1ccc(Cl)cc1)C1[C@H](c2ccccc2Br)[C@@H](c2ccccc2)NC12C(=O)Nc1ccc(Br)cc12 (stereo partly specified)
23.3 µM: TGI (RXF 393 renal)
22.3 µM: TGI (MDA-MB-435)
18.7 µM: TGI (SR leukemia)
32.5 µM: TGI (HL-60(TB) leukemia)
26.5 µM: TGI (CCRF-CEM leukemia)
> 49 µM: TGI (786-0 renal) | TGI (A498 renal) | TGI (A549 NSCLC) | TGI (ACHN renal) | TGI (BT-549 breast) | TGI (CAKI-1 renal) | TGI (DU-145 prostate) | TGI (EKVX NSCLC) | TGI (HCT-15 colon) | TGI (HOP-62 NSCLC) | TGI (HOP-92 NSCLC) | TGI (HS 578T breast) | TGI (IGROV1 ovarian) | TGI (K-562 leukemia) | TGI (MALME-3M melanoma) | TGI (MCF7 breast) | TGI (NCI-H226 lung) | TGI (NCI-H23 lung) | TGI (OVCAR-4 ovarian) | TGI (OVCAR-5 ovarian) | TGI (OVCAR-8 ovarian) | TGI (RPMI-8226 leukemia) | TGI (SF-268 CNS) | TGI (SF-295 CNS) | TGI (SF-539 CNS) | TGI (SK-MEL-2 melanoma) | TGI (SK-MEL-28 melanoma) | TGI (SK-OV-3 ovarian) | TGI (SNB-19 CNS) | TGI (SNB-75 CNS) | TGI (SW-620 colon) | TGI (T-47D breast) | TGI (TK-10 renal) | TGI (UACC-257 melanoma) | TGI (UACC-62 melanoma) | TGI (UO-31 renal)
14.2 µM: TGI (MDA-MB-468 breast)
31.6 µM: TGI (U251 CNS)
33.8 µM: TGI (HCC-2998 colon)
inactive: GI50 (786-0 renal) 18.4 µM | GI50 (A498 renal) > 49 µM | GI50 (A549 NSCLC) 4.84 µM | GI50 (ACHN renal) 10 µM | GI50 (BT-549 breast) 5.97 µM | GI50 (CAKI-1 renal) 1.88 µM | GI50 (CCRF-CEM leukemia) 5.97 µM | GI50 (COLO 205 colon) 7.1 µM | GI50 (DU-145 prostate) 9.36 µM | GI50 (EKVX NSCLC) 13.3 µM | GI50 (HCC-2998 colon) 8.14 µM | GI50 (HCT-116 colon) 2.34 µM | GI50 (HCT-15 colon) 7.65 µM | GI50 (HL-60(TB) leukemia) 8.67 µM | GI50 (HOP-62 NSCLC) 15.6 µM | GI50 (HOP-92 NSCLC) 3.28 µM | GI50 (HS 578T breast) 7.13 µM | GI50 (HT29 colon) 6.21 µM | GI50 (IGROV1 ovarian) 6.71 µM | GI50 (K-562 leukemia) 6.65 µM | GI50 (KM12 colon) 7.46 µM | GI50 (LOX IMVI melanoma) 4.95 µM | GI50 (M14 melanoma) 7.81 µM | GI50 (MALME-3M melanoma) 13.1 µM | GI50 (MCF7 breast) 2.64 µM | GI50 (MDA-MB-231 breast) 5.01 µM | GI50 (MDA-MB-435) 7.74 µM | GI50 (MDA-MB-468 breast) 1.55 µM | GI50 (MOLT-4 leukemia) 2.4 µM | GI50 (NCI-H226 lung) 5.52 µM | GI50 (NCI-H23 lung) 7.91 µM | GI50 (NCI-H460 lung) 5.94 µM | GI50 (NCI-H522 lung) 2.44 µM | GI50 (OVCAR-3 ovarian) 5.07 µM | GI50 (OVCAR-4 ovarian) 10.1 µM | GI50 (OVCAR-5 ovarian) 10.2 µM | GI50 (OVCAR-8 ovarian) 11 µM | GI50 (PC-3 prostate) 2.53 µM | GI50 (RPMI-8226 leukemia) 8.15 µM | GI50 (RXF 393 renal) 2.2 µM | GI50 (SF-268 CNS) 3.97 µM | GI50 (SF-295 CNS) 12.2 µM | GI50 (SF-539 CNS) > 49 µM | GI50 (SK-MEL-2 melanoma) 7.37 µM | GI50 (SK-MEL-28 melanoma) 20.3 µM | GI50 (SK-MEL-5 melanoma) 10.6 µM | GI50 (SK-OV-3 ovarian) 13.6 µM | GI50 (SN12C renal) 5.33 µM | GI50 (SNB-19 CNS) 23.2 µM | GI50 (SNB-75 CNS) 1.31 µM | GI50 (SR leukemia) 3.01 µM | GI50 (SW-620 colon) 9.5 µM | GI50 (T-47D breast) 3.88 µM | GI50 (TK-10 renal) 20.4 µM | GI50 (U251 CNS) 8.25 µM | GI50 (UACC-257 melanoma) 10 µM | GI50 (UACC-62 melanoma) 6.59 µM | GI50 (UO-31 renal) 4.83 µM
23.4 µM: TGI (KM12 colon)
17.2 µM: TGI (HT29 colon)
33.4 µM: TGI (PC-3 prostate)
26.2 µM: TGI (NCI-H522 lung)
15 µM: TGI (NCI-H460 lung)
29.5 µM: TGI (OVCAR-3 ovarian)
13.5 µM: TGI (LOX IMVI melanoma)
38 µM: TGI (SK-MEL-5 melanoma)
23 µM: TGI (MDA-MB-231 breast)
15.5 µM: TGI (COLO 205 colon)
34.9 µM: TGI (M14 melanoma)
14 µM: TGI (SN12C renal)
25.2 µM: TGI (MOLT-4 leukemia)
11.7 µM: TGI (HCT-116 colon)
